These results are taken from US10017527B2, “KLK4 inhibitors” (Universiteit Antwerpen, priority 2014, dated 2018).

Where only a bound is given, the exact number is not on record here.

Assay type in all cases: biochemical
The target in assay [1] is T1, uPA (recombinant) (Homo sapiens, UniProt P00749).
T1 construct: purchased Nodia
Description: uPA inhibition, chromogenic substrate Biophen CS-61(44). The conditions noted are these: Tris buffer pH 8.8; read-out: IC50 uPA.

In assay [2] the target is T2, tPA (recombinant) (Homo sapiens, UniProt P00750).
T2 construct: purchased Nodia
The experiment in a line: tPA inhibition, chromogenic substrate Biophen CS-05(88). The conditions noted are these: Tris buffer pH 8.3; read-out: IC50 tPA. In short, it runs like this: (§1)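 Chromogenic tPA and neutrophil elastase assays were monitored at 405 nm absorption. KLK1 and KLK2 IC50s came from a common method.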

The target in assay [3] is T3, KLK4 (Homo sapiens, UniProt Q9Y5K2).
T3 construct: purchased Viktor Magdolen (TUM), supplied by an academic laboratory
The experiment in a line: KLK4 inactivation kinetics from progress curves (kobs vs inhibitor concentration). The conditions noted are these: for kapp KLK4: apparent second-order rate constant, substrate 250 μM; for Irreversible (KLK4): irreversible binding to KLK4, Yes/No. In short, it runs like this:
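Enzyme was added at time zero to inhibitor plus substrate (250 μM final), and aminomethylcoumarine absorbance was followed under pseudo-first-order conditions ([I]0>>[E]0) with under 10% substrate conversion. Progress curves were fitted to the integrated rate equation to give kobs. kapp is the slope of kobs versus [I]0 and depends on substrate concentration.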

The target in assay [4] is T4, KLK8 (human) (Homo sapiens, UniProt O60259).
T4 construct: purchased Viktor Magdolen, TUMunich (TUM), supplied by an academic laboratory
T4 sequence (O60259 33-260): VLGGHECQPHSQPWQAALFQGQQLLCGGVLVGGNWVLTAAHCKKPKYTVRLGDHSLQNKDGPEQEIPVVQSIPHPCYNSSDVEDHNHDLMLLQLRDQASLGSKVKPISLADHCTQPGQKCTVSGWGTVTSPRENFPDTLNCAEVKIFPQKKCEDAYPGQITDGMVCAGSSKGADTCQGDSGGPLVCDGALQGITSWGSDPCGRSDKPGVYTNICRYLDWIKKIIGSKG
The experiment in a line: KLK8 inhibition, fluorogenic substrate Boc-Val-Pro-Arg-AMC. The following applies: Tris buffer pH 8; read-out: IC50 KLK8. The text has this: (§2) The IC50 values For KLK1, KLK2 and KLK8 were obtained in a similar way. For plasmin, tPA, thrombin, Fxa, HNE, Plasma kallikrein Chromogenic substrates were used (absorption: 405 nm). (KLK2, KLK4, KLK8 were supplied by Viktor Magdolen TUMunich (TUM)).

For assay [5], the target named is T5, KLK1 (human) (Homo sapiens, UniProt P06870).
T5 construct: purchased Prospec
Description: KLK1 inhibition, fluorogenic substrate H-Pro-Phe-Arg-AMC. The conditions noted are these: Tris buffer pH 7.8; read-out: IC50 KLK1. In short, it runs like this: as §1

For assay [6], the target named is AcHE (Homo sapiens, UniProt P22303). The experiment in a line: AcHE inhibition. The conditions noted are these: read-out: IC50 AcHE.
Assay [7] concerns the target T6, Neurtophil Elastase(human) (Homo sapiens, UniProt P08246).
T6 construct: purchased Enzo-life sciences
T6 sequence (P08246 30-267): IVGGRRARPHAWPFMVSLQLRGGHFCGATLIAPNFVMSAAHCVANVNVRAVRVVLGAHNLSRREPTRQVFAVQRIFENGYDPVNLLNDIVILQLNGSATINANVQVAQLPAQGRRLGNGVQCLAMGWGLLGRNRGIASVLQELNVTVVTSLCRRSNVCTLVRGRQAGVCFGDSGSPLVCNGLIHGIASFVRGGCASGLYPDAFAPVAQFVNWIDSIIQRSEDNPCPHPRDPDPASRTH
Description: Neutrophil elastase inhibition, chromogenic substrate MeOSuc-Ala-Ala-Pro-Val-pNA. The conditions noted are these: Tris buffer pH 7.8; read-out: IC50 HNE.
Excerpt: as §2

In assay [8] the target is T7, Plasmine (human plasma) (Homo sapiens, UniProt P00747).
T7 construct: purchased Sigma-Aldrich; host or cells: human plasma
Description: Plasmin inhibition, chromogenic substrate Biophen CS-21(66). The conditions noted are these: Plasmin; Tris buffer pH 7.4; read-out: IC50 PLM.
Excerpt: as §2

Assay [9] concerns the target T3, KLK4. The experiment in a line: KLK4 enzymatic inhibition, fluorogenic substrate Boc-Val-Pro-Arg-AMC. The following applies: 15 min pre-incubation at 37° C., Tris buffer pH 8.3; read-out: IC50 KLK4.
For assay [10], the target named is T8, Thrombine (human plasma) (Homo sapiens, UniProt P00734).
T8 construct: purchased Sigma-Aldrich; host or cells: human plasma
Description: Thrombin inhibition, chromogenic substrate Biophen CS-21(66). The conditions noted are these: Thrombin; Tris buffer pH 8.3; read-out: IC50 THR.

T3 sequence (Q9Y5K2 31-254): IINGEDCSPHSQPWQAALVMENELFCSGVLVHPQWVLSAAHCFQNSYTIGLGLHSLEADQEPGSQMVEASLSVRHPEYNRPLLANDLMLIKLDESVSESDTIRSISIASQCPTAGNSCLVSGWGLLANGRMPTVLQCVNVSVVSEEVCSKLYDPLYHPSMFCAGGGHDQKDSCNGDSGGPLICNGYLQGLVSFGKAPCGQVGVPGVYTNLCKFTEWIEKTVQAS
T7 sequence (P00747 581-810 limits assumed): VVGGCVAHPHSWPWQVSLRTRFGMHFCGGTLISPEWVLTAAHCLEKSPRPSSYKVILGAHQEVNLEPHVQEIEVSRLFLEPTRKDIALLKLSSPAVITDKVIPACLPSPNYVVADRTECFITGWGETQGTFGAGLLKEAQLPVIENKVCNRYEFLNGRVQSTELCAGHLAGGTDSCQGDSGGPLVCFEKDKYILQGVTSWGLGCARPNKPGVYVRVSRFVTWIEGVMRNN
T7 sequence (P00747 98-580 partner limits assumed): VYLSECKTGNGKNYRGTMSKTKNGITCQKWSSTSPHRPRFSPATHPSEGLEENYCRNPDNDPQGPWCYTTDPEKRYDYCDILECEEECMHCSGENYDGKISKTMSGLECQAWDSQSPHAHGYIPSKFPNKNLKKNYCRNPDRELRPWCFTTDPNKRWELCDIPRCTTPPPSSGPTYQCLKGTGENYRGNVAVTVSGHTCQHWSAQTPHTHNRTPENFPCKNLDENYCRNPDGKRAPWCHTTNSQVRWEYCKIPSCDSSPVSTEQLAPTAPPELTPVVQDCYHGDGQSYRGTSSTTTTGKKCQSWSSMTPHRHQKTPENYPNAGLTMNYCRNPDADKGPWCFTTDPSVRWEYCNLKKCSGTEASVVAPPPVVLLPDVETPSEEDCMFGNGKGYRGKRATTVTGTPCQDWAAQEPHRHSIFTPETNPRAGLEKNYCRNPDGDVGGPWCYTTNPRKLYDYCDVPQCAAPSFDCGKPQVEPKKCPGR
AcHE, sequence (P22303 32-614): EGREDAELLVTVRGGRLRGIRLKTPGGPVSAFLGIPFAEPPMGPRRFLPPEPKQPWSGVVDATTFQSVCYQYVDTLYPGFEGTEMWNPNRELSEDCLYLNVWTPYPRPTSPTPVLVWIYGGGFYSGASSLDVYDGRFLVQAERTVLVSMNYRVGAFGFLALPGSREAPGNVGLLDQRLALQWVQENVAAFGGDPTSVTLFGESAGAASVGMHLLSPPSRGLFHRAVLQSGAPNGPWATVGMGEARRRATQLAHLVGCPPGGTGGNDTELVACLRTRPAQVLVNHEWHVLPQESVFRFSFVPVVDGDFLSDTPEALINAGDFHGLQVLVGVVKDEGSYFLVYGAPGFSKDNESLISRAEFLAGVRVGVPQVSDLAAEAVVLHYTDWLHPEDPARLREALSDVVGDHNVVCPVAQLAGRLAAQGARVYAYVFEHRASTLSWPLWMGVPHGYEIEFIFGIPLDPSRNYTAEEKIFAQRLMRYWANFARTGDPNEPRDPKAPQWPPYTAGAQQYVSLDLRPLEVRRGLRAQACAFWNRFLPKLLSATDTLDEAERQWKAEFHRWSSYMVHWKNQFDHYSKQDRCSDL
T2 sequence (P00750 36-562, species assumed): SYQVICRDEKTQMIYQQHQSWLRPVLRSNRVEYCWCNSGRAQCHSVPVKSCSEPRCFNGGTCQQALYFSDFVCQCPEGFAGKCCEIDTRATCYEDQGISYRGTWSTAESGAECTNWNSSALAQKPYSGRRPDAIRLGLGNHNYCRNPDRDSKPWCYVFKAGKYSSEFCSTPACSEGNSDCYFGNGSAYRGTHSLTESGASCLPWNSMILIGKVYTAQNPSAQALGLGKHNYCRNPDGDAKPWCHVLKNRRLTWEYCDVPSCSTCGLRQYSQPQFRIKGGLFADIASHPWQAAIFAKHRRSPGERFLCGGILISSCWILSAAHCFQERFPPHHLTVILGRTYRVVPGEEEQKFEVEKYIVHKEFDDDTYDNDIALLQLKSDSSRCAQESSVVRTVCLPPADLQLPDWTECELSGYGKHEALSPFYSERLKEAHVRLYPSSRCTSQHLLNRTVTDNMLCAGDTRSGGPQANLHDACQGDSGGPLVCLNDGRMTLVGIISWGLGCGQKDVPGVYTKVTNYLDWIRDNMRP
T5 sequence (P06870 25-262): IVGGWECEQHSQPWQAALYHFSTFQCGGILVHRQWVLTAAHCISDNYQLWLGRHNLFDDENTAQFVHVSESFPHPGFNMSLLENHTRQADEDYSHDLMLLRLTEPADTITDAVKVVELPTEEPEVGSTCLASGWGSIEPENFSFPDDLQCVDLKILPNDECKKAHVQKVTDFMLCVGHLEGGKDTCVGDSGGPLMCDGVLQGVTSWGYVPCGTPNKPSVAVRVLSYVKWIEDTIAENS

As a reminder, the IC50 is the concentration that gives 50% inhibition. For `COCCOCCOC(=O)NC(c1ccc(NC(=N)N)cc1)P(=O)(Oc1ccccc1)Oc1ccccc1.O=C(O)C(F)(F)F` (stereo not shown) [Compound 28, 2-(2-methoxyethoxy)ethyl((diphenoxyphosphoryl)(4-guanidinophenyl)methyl) carbamate 2,2,2-trifluoroacetate], the IC50 in assay [1] is 10 to 250 µM; in assay [2], more than 250 µM; in assay [4] it was 10 to 250 µM; in [5] it was 10 to 250 µM; in assay [6] it was 10 to 250 µM; in [7] it was more than 250 µM. The IC50 is 10 to 250 µM in assay [8], less than 0.1 µM in assay [9] and more than 250 µM in [10]. For the same compound, the “kapp KLK4” value in assay [3] came out at 34000 M⁻¹ s⁻¹. For the same compound, the “Irreversible (KLK4)” value in [3] was “Yes/”.
On to `N=C(N)Nc1ccc(C(NC(=O)OCCOc2ccccc2)P(=O)(Oc2ccccc2)Oc2ccccc2)cc1.O=C(O)C(F)(F)F` (stereo not shown) [Compound 30, 2-phenoxyethyl((diphenoxyphosphoryl)(4-guanidinophenyl)methyl)carbamate 2,2,2-trifluoroacetate], for which the IC50 is 2.5 to 10 µM in [1]; more than 250 µM in [2]; 10 to 250 µM in [4]; 2.5 to 10 µM in [5]; 10 to 250 µM in assay [6]; more than 250 µM in assay [7]. Further, the IC50 in assay [8] is 10 to 250 µM; in assay [9] it was less than 0.1 µM; in [10], more than 250 µM. In addition, the “kapp KLK4” value in [3] is 15000 M⁻¹ s⁻¹. Also, the “Irreversible (KLK4)” value in [3] is on record as “Yes/”.
